Measurements: paper PMC6588349 (eLife, 2019)
Where two headings read alike, the source gives them in different places.

How the values were obtained:
[1] = molecular target: T1, SNAP-mGluR2 (Rattus norvegicus, UniProt P31421); assay: Single-molecule pulldown (SiMPull) photobleaching step counting, full-length SNAP-mGluR2; conditions: 1 mM glutamate and 10 µM LY48
T1 construct: HEK 293T cells expressing full-length mGluR2; expressed in transfected cells; host or cells: HEK 293T
Protocol: To restrict our analysis to surface-targeted receptors, we expressed N-terminally SNAP-tagged receptor variants and labeled them with membrane-impermeable fluorophores.
To test this, we incubated SNAP-mGluR2-TMD expressing cells and lysates with PAMs or NAMs during the SiMPull experiment.
Briefly, to prevent non-specific sticking of proteins, flow chambers were prepared with mPEG-passivated glass slides and coverslips doped with ~1% biotinylated mPEG, as previously described. Prior to each experiment, chambers were incubated with 0.2 mg/mL NeutrAvidin (ThermoFisher) for 2 min followed by 10 nM of a biotinylated anti-HA antibody (abcam ab26228) for 20–30 min. After each conjugation step, the chambers were washed with T50 buffer (50 mM NaCl, 10 mM Tris, pH 7.5).
After labeling, cells were dissociated from coverslips by incubating with Ca^2+-free PBS for 20 min followed by gentle pipetting. […] Following 1 hr of lysis at 4°C, cells were centrifuged at 16,000 g for 20 min before the supernatant was collected and maintained on ice. The cell lysate was diluted in a 0.1% detergent dilution buffer to obtain sparse immobilization of labeled protein on the passivated slide. […]
Single molecules were imaged with a 100x objective on an inverted microscope (Olympus IX73) in total internal reflection fluorescence (TIRF) mode. […]

[2] = molecular target: T2, full-length mGluR2 (SNAP-mGluR2) (Rattus norvegicus, UniProt P31421); assay: GIRK activation assay, whole cell patch clamp, HEK 293T cells expressing full-length mGluR2; format: cell-based; conditions: for effect on basal GIRK current in the absence of glutamate: NAM alone, HEK 293T cells expressing GIRK and full-length mGluR2
T2 construct: HEK 293T cells expressing full-length mGluR2; expressed in transfected cells; host or cells: HEK 293T
Protocol: Cells were cultured in DMEM with 5% FBS on poly-L-lysine-coated glass coverslips. DNA plasmids were transfected into cells using Lipofectamine 3000 (Thermo Fisher). […] For single-molecule pulldown (SiMPull) experiments, cells were transfected with 0.7 μg DNA of HA and SNAP-tagged receptor constructs, unless otherwise noted.
Whole-cell patch clamp recordings from single isolated cells were performed 24–36 hr after transfection in a high-potassium extracellular solution containing (in mM): 120 KCl, 29 NaCl, 1 MgCl2, 2 CaCl2 and 10 HEPES, pH 7.4. Cells were voltage clamped to −60 mV using an Axopatch 200B amplifier (Axon Instruments) and membrane currents were recorded. Glass pipettes of resistance between 3 and 8 MΩ were filled with intracellular solution containing (in mM): 140 KCl, 10 HEPES, 3 Na2ATP, 0.2 Na2GTP, 5 EGTA and 3 MgCl2, pH 7.4. Data were acquired with a 2 kHz acquisition rate and filtered with the amplifier 4-pole Bessel filter at 1 kHz. Drugs were prepared in extracellular solution and applied using a gravity-driven perfusion system. Data were analyzed with Clampfit (Molecular Devices) and Prism (GraphPad). Data for all conditions came from at least two separate transfections.

[3] = Gramicidin-based fluorescence quench assay for changes of lipid bilayer properties (LUVs); format: physicochemical; conditions: 1 to 10 µM
Source text: To further probe this, we used a fluorescence quench assay for drug-induced changes of lipid bilayer properties ([Ingólfsson and Andersen, 2010]) (Figure 6—figure supplement 3A; see Materials and methods), in which changes in gramicidin channel function is used as a reporter of membrane modification. […] The persistent BINA response is thus consistent with a model where BINA readily partitions into the plasma membrane lipid bilayer (and possibly other lipidic compartments).
The gramicidin-based fluorescence assay has been described previously ([Ingólfsson and Andersen, 2010]). In brief, large unilamellar vesicles (LUVs), loaded with intravesicular ANTS were prepared from DC22:1PC and gramicidin (weight ratio 1000:1, corresponding to a ~ 2000:1 molar ratio) using freeze-drying, extrusion and size-exclusion chromatography; the final lipid concentration was 4–5 mM; the suspension was stored in the dark at 12.5°C for a maximum of 7 days. […] Before use, the LUV-ANTS stock was diluted to 200–250 μM lipid with NaNO3 buffer (140 mM NaNO3, 10 mM HEPES, pH 7).
The NAMs and PAMs (dissolved in DMSO) or DMSO (as control) were added to a LUV-ANTS sample and equilibrated at 25°C in the dark for 10 min. before the mixture was loaded into a stopped-flow spectrofluorometer (Applied Photophysics SX.20, Leatherhead, UK) and mixed with either NaNO3 buffer or TlNO3 buffer; Tl^+ (thallous ion) is a gramicidin channel-permeant quencher of the ANTS fluorescence. Samples were excited at 352 nm and the fluorescence signal above 455 nm was recorded in the absence (four successive trials) or presence (nine successive trials) of the quencher. All the NAM and PAM derivatives fluoresce to varying degrees and addition of these drugs to LUVs in control experiments without gA or Tl^+ increased the fluorescence signal, and each signal was normalized to account for the compound's fluorescence. […] The quench rate (Rate), the rate of Tl^+ influx, was determined at 2 ms: Rate=β/τ0⋅(t/τ0)^β−1|2ms […]

T2 sequence (P31421 19-872): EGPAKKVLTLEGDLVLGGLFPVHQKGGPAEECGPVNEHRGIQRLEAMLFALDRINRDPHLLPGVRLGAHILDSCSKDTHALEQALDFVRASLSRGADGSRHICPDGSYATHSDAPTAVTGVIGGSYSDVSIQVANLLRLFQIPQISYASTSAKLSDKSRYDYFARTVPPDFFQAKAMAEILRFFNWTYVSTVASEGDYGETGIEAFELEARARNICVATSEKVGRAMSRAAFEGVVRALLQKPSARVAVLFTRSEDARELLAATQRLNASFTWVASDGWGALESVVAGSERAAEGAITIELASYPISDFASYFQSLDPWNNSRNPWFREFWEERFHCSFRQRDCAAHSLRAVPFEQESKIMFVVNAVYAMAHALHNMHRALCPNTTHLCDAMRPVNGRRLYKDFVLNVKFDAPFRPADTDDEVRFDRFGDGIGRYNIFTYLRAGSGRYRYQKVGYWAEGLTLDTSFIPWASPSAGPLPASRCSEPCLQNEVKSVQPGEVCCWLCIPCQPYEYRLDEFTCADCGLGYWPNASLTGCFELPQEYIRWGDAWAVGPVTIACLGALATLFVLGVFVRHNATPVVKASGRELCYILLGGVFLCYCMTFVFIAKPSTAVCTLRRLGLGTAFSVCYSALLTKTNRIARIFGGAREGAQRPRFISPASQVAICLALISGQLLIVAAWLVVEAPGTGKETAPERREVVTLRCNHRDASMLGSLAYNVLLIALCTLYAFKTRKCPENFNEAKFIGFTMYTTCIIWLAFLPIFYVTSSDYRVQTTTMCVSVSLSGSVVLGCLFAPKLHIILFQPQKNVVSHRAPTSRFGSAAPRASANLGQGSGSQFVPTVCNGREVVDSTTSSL
T1 sequence (P31421 19-872): as above

In the case of `COc1ccccc1Oc1ccc(N(Cc2cccnc2)S(=O)(=O)CC(F)(F)F)cc1` [LY48], the “two-step bleaching events of SNAP-mGluR2 with glutamate plus LY48” value [1] is reported as ~ 60%, the “effect on the glutamate-sensitivity of mGluR2 (GIRK)” value ([2]; 50 nM LY48) is reported as “no effect on the glutamate-sensitivity of mGluR2” and the “highest concentration that did not produce a GIRK response on its own” value ([2]; full-length mGluR2) is reported as 50 nM. For the same compound, the “reversibility of GIRK currents after washout” value ([2]; full-length mGluR2, up to 10 min of washout) was “fully-reversible currents”, the EC50 ([2]; mGluR2-WT, read-out: GIRK activation EC50 (approximate)) was about 300 nM and the “maximal PAM-induced GIRK activation relative to glutamate” value ([2]; mGluR2-WT, relative to saturating glutamate) was ~ 70%. The “GIRK current time 10% to 90%” value ([2]; saturating: 10 µM LY48, 1 mM Glutamate) was 14.3 ± 3.5 s and the EC50 ([2]; wild-type SNAP-mGluR2, HEK 293T, PAM alone, normalized to saturating glutamate, mean ± s.e.m., read-out: GIRK activation EC50) was 230 ± 40 nM.

In the case of `Clc1cccc(Cl)c1/C(=C/n1cncn1)OC1CCCCCC1` [Ro 64], the “effect on basal GIRK current in the absence of glutamate” value [2] is reported as “small but clear outward current” and the “changes in gramicidin channel function (membrane properties)” value [3] is reported as “do not alter membrane properties”.

In the case of `N#Cc1cc(C2=Nc3ccc(Br)cc3NC(=O)C2)ccn1` [MNI 137], the “effect on basal GIRK current in the absence of glutamate” value [2] is reported as “no effect on basal current”, the “effect of co-application on LY48-induced GIRK activation” value ([2]; co-applied with LY48, saturating concentration for LY341495) is reported as “blocked” and the “changes in gramicidin channel function (membrane properties)” value [3] is reported as “do not alter membrane properties”.
